Data as given in publication PMC8151276, “An Integrated Approach toward NanoBRET Tracers for Analysis of GPCR Ligand Engagement” (Molecules, 2021).

Assays:
Assay type in all cases: binding
[1] = biological target: T1, NPY1R (Homo sapiens, UniProt P25929); assay: NanoBRET screen HiBiT-NPY1R in HEK293
T1 construct: purchased Promega (in-house HiBiT-GPCR construct library, NanoBRET)
T1 sequence (P25929 1-384): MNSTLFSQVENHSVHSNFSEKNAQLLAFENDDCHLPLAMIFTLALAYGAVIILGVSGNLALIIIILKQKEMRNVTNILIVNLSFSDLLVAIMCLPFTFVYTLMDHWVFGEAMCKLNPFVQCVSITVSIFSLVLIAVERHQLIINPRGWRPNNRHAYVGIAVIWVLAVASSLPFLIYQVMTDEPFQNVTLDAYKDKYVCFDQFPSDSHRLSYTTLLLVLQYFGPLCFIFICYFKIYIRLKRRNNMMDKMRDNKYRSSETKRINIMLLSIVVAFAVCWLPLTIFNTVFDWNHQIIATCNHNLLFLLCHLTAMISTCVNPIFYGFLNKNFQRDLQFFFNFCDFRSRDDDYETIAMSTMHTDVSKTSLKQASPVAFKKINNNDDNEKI
Experimental: (§1) Each tracer candidate was screened across the entire library of HiBiT-GPCR constructs using NanoBRET as the detection modality. As depicted in Figure 4A, the specificity of interactions was evaluated through decrease in BRET due to competitive displacement of a bound tracer by excess parental compound. Each tracer was analyzed for binding to each HiBiT-GPCR fusion in the absence and in the presence of competing parental compound. Briefly, HEK293 cells were transfected with HiBiT-GPCR constructs diluted into promoterless DNA to reduce expression and maximize translocation to the cell surface. Each tracer candidate was then screened at concentrations of 1 μM and 0.1 μM across cells expressing these fusions. Cells were treated for 1.5 h with tracer either alone or in the presence of 20 μM competing parental compound (i.e., control). BRET was measured upon addition of purified LgBiT and subsequent complementation with HiBiT genetically fused to a GPCR. The specificity of interactions was assessed through a decrease in BRET signal due to competitive displacement of the bound tracer. To further gauge the robustness of these interactions, the fold response over the control (i.e., BRETtracer/BRETcontrol) was calculated. We chose a 1.5-fold response, which translates to ≥7-fold signal over noise as the minimal threshold required to score an interaction as positive. […]. Below we highlight the screening results obtained for our exemplary fluorescent tracers based on Clozapine, Amitriptyline and AZD1283.
(§2) HiBiT-GPCR DNA constructs were diluted in 10 mM Tris pH 8 to a final concentration of 0.01 μg/μL, arrayed in 96-well plates and stored at −20 °C. For transfection, HEK293 cells were suspended in Opti-MEM (without phenol red) supplemented with 2% fetal bovine serum (Seradigm) and 100 units/mL penicillin–streptomycin (Gibco) at a final concentration of 220,000 cells/mL and dispensed into white 96-well plates at 90 μL/well. Subsequent transfections and screens were carried using an Agilent Bravo Automated Liquid Handling Platform. First, the 96-well HiBiT DNA arrays were diluted 25-fold in Opti-MEM (without serum or phenol red) to a final concentration of 0.0004 μg/μL and 20 μL of the diluted DNAs were transferred into new 96-well plates. Next, promoterless carrier DNA (1 μg/μL) was diluted 25-fold (0.04 μg/μL) and then dispensed into the diluted arrays at 20 μL/well. Following brief mixing, Viafect transfection reagent (Promega) diluted 16-fold into Opti-MEM was dispensed into the plates at 40 μL/well. After mixing by pipetting, plates were incubated for 10 min on the pipetting station deck. The DNA-transfection reagent complexes were then added to plates containing cells. To facilitate the screen, 10 μL of DNA-transfection reagent complexes were added in duplicates to the top 4 and bottom 4 rows, resulting in two identical 48-well arrays per plate. Plates with transfected cells were incubated for 18–20 h at 37 °C/5% CO2. A screen of each tracer across the entire library using two different concentrations requires duplicate plates of transfected cells. Depending on the number of tracers being screened, transfections can be scaled up using the same ratios. The next day, for each tracer, four 20× screening solutions in tracer dilution buffer (Promega) were prepared: two duplicates at final concentration of 20 μM and two duplicates at a final concentration of 2 μM. A competing unmodified compound was added to one of each duplicate at a final concentration of 400 μM. The four resulting solutions were diluted 4-fold in Opti-MEM without serum or phenol red to generate 5× solutions (5 µM and 0.5 µM tracer +/− 100 μM competing compound). To screen the library, a BioTek MultiFlo FX liquid dispenser was used to dispense 22.5 µL of tracer solution to the top 4 rows and 22.5 µL tracer + competing compound solution to the 4 bottom rows. Plates were briefly mixed on an orbital shaker and incubated for 1.5 h at room temperature. […]

[2] = biological target: T2, PTGER2 (Homo sapiens, UniProt P43116); assay: NanoBRET screen HiBiT-PTGER2 in HEK293
T2 construct: purchased Promega (in-house HiBiT-GPCR construct library, NanoBRET)
T2 sequence (P43116 whole entry): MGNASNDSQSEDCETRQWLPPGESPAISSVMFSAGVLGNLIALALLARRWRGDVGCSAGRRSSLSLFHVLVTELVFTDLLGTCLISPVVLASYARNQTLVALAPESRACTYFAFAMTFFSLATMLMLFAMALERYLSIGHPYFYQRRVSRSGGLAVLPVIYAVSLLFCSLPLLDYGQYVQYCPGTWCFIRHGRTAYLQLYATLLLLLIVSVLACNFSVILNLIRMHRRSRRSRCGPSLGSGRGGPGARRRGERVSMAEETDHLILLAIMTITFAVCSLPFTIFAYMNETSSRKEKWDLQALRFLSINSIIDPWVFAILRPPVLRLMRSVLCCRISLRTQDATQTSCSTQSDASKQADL
Experimental: as §1, §2

[3] = biological target: T3, P2RY12 (Homo sapiens, UniProt Q9H244); assay: NanoBRET screen HiBiT-P2RY12 in HEK293
T3 construct: purchased Promega (in-house HiBiT-GPCR construct library, NanoBRET)
T3 sequence (Q9H244 whole entry, one chain of several): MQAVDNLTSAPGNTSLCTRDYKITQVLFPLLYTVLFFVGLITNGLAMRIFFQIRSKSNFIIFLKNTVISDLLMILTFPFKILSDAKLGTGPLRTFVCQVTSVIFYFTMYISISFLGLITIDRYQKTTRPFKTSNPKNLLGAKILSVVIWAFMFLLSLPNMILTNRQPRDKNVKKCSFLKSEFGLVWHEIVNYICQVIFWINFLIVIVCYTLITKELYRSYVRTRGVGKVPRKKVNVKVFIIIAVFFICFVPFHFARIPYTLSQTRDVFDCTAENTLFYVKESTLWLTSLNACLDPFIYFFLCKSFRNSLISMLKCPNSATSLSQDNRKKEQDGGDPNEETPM
Experimental: as §1, §2

[4] = biological target: T4, NPBWR2 (Homo sapiens, UniProt P48146); assay: NanoBRET screen HiBiT-NPBWR2 in HEK293
T4 construct: purchased Promega (in-house HiBiT-GPCR construct library, NanoBRET)
T4 sequence (P48146 whole entry): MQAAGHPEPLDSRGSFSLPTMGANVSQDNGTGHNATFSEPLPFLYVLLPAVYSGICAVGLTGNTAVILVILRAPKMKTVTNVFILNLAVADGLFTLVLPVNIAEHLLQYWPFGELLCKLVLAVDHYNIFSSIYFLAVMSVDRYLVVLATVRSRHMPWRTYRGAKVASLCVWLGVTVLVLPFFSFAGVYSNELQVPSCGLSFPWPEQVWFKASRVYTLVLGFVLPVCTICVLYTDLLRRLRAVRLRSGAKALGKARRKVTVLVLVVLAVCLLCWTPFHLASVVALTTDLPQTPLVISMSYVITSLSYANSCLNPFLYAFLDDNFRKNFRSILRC
Experimental: as §1, §2

[5] = biological target: T5, F2R (Homo sapiens, UniProt P25116); assay: NanoBRET screen HiBiT-F2R in HEK293
T5 construct: purchased Promega (in-house HiBiT-GPCR construct library, NanoBRET)
T5 sequence (P25116 22-425): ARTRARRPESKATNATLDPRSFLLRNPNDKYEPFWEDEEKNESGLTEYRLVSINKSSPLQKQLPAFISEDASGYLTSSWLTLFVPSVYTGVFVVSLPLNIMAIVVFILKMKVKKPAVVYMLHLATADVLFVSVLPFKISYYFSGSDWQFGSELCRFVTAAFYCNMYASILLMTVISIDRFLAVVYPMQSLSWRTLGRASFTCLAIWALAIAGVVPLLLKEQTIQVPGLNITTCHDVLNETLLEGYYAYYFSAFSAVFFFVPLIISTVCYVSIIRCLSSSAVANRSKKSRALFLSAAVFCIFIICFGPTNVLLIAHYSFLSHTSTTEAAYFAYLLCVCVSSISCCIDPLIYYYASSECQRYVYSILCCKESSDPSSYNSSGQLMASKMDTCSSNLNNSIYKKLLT
Experimental: as §1, §2

## O=C(CCc1ccc2n1[B-](F)(F)[N+]1=C(c3ccc[nH]3)C=CC1=C2)NCc1ccc(C(=O)NCCOCCC(=O)N[C@@H]2CC[C@@]3(O)[C@H]4Cc5ccc(O)c6c5[C@@]3(CCN4CC3CC3)[C@H]2O6)cc1 [Naltrexone-3-NB590]
[1]; NPY1R, tracer 0.1μM
  NanoBRET Fold Response: 0.93
[1]; NPY1R, tracer 1μM
  NanoBRET Fold Response: 1.02
[2]; PTGER2, tracer 0.1μM
  NanoBRET Fold Response: 1.04
[2]; PTGER2, tracer 1μM
  NanoBRET Fold Response: 1.00
[3]; P2RY12, tracer 0.1μM
  NanoBRET Fold Response: 1.30
[3]; P2RY12, tracer 1μM
  NanoBRET Fold Response: 0.88
[4]; NPBWR2, tracer 0.1μM
  NanoBRET Fold Response: 1.05
[4]; NPBWR2, tracer 1μM
  NanoBRET Fold Response: 1.04
[5]; F2R, tracer 0.1μM
  NanoBRET Fold Response: 1.02
[5]; F2R, tracer 1μM
  NanoBRET Fold Response: 0.99

## CN1CCN(C2=Nc3cc(Cl)ccc3N(CC(=O)NCCOCCOCCOCCOCCNC(=O)CCc3ccc4n3[B-](F)(F)[N+]3=C(c5ccc[nH]5)C=CC3=C4)c3ccccc32)CC1 [Clozapine-c-2-NB590]
[1]; NPY1R, 0.1μM tracer
  NanoBRET Fold Response: 1.01
[1]; NPY1R, 1μM tracer
  NanoBRET Fold Response: 1.01
[2]; PTGER2, 0.1μM tracer
  NanoBRET Fold Response: 0.98
[2]; PTGER2, 1μM tracer
  NanoBRET Fold Response: 1.09
[3]; P2RY12, 0.1μM tracer
  NanoBRET Fold Response: 0.99
[3]; P2RY12, 1μM tracer
  NanoBRET Fold Response: 0.95
[4]; NPBWR2, 0.1μM tracer
  NanoBRET Fold Response: 0.97
[4]; NPBWR2, 1μM tracer
  NanoBRET Fold Response: 0.98
[5]; F2R, 0.1μM tracer
  NanoBRET Fold Response: 0.99
[5]; F2R, 1μM tracer
  NanoBRET Fold Response: 0.99

## O=C(CCOCCOCCOCCOCCNC(=O)CCc1ccc2n1[B-](F)(F)[N+]1=C(c3ccc[nH]3)C=CC1=C2)NCCCN1CCN(C2=Nc3cc(Cl)ccc3Nc3ccccc32)CC1 [Clozapine-a-2-NB590]
[1]; NPY1R, 0.1μM tracer
  NanoBRET Fold Response: 0.97
[1]; NPY1R, 1μM tracer
  NanoBRET Fold Response: 1.23
[2]; PTGER2, 0.1μM tracer
  NanoBRET Fold Response: 1.01
[2]; PTGER2, 1μM tracer
  NanoBRET Fold Response: 1.05
[3]; P2RY12, 0.1μM tracer
  NanoBRET Fold Response: 1.00
[3]; P2RY12, 1μM tracer
  NanoBRET Fold Response: 0.94
[4]; NPBWR2, 0.1μM tracer
  NanoBRET Fold Response: 1.04
[4]; NPBWR2, 1μM tracer
  NanoBRET Fold Response: 0.89
[5]; F2R, 0.1μM tracer
  NanoBRET Fold Response: 1.12
[5]; F2R, 1μM tracer
  NanoBRET Fold Response: 1.05

## CCOC(=O)c1cc(C#N)c(N2CCC(C(=O)NS(=O)(=O)Cc3ccccc3/C=C/C(=O)NCCNC(=O)CCc3ccc4n3[B-](F)(F)[N+]3=C(c5ccc[nH]5)C=CC3=C4)CC2)nc1C [AZD1283-1-NB590]
[1]; NPY1R, 0.1μM
  NanoBRET Fold Response: 1.10
[1]; NPY1R, 1μM
  NanoBRET Fold Response: 1.04
[2]; PTGER2, 0.1μM
  NanoBRET Fold Response: 1.00
[2]; PTGER2, 1μM
  NanoBRET Fold Response: 1.04
[3]; P2RY12, 0.1μM
  NanoBRET Fold Response: 3.11
[3]; P2RY12, 1μM
  NanoBRET Fold Response: 2.18
[4]; NPBWR2, 0.1μM
  NanoBRET Fold Response: 0.95
[4]; NPBWR2, 1μM
  NanoBRET Fold Response: 0.99
[5]; F2R, 0.1μM
  NanoBRET Fold Response: 1.01
[5]; F2R, 1μM
  NanoBRET Fold Response: 1.01

## COc1ccc2[nH]c(-c3ccc(CNC(=O)CCOCCOCCOCCOCCNC(=O)CCc4ccc5n4[B-](F)(F)[N+]4=C(c6ccc[nH]6)C=CC4=C5)cc3)c(CCNC(C)=O)c2n1 [AzomelatoninICO9-2-NB590]
[1]; 0.1μM tracer
  NanoBRET Fold Response: 1.15
[1]; 1μM tracer
  NanoBRET Fold Response: 0.94
[2]; 0.1μM tracer
  NanoBRET Fold Response: 1.01
[2]; 1μM tracer
  NanoBRET Fold Response: 0.97
[3]; 0.1μM tracer
  NanoBRET Fold Response: 1.15
[3]; 1μM tracer
  NanoBRET Fold Response: 1.05
[4]; 0.1μM tracer
  NanoBRET Fold Response: 1.08
[4]; 1μM tracer
  NanoBRET Fold Response: 0.90
[5]; 0.1μM tracer
  NanoBRET Fold Response: 1.38
[5]; 1μM tracer
  NanoBRET Fold Response: 0.84

## CCCn1c(=O)c2[nH]c(-c3ccc(OCC(=O)NCCNC(=O)CCOCCNC(=O)c4ccc(CNC(=O)CCc5ccc6n5[B-](F)(F)[N+]5=C(c7ccc[nH]7)C=CC5=C6)cc4)cc3)nc2n(CCC)c1=O [XAC-3-NB590]
[1]; NPY1R, tracer 0.1μM
  NanoBRET Fold Response: 1.01
[1]; NPY1R, tracer 1μM
  NanoBRET Fold Response: 0.95
[2]; PTGER2, tracer 0.1μM
  NanoBRET Fold Response: 1.04
[2]; PTGER2, tracer 1μM
  NanoBRET Fold Response: 1.09
[3]; P2RY12, tracer 0.1μM
  NanoBRET Fold Response: 0.91
[3]; P2RY12, tracer 1μM
  NanoBRET Fold Response: 1.04
[4]; NPBWR2, tracer 0.1μM
  NanoBRET Fold Response: 1.01
[4]; NPBWR2, tracer 1μM
  NanoBRET Fold Response: 0.99
[5]; F2R, tracer 0.1μM
  NanoBRET Fold Response: 1.20
[5]; F2R, tracer 1μM
  NanoBRET Fold Response: 0.80

## CN(CCC=C1c2ccccc2CCc2ccccc21)C(=O)CCOCCOCCOCCOCCNC(=O)CCc1ccc2n1[B-](F)(F)[N+]1=C(c3ccc[nH]3)C=CC1=C2 [Amitriptyline-e-2-NB590]
[3]; tracer at 1μM
  NanoBRET Fold Response: 1.05

## COc1ccccc1N1CCN(CCCCN2C(=O)c3ccc(CNC(=O)CCOCCOCCOCCOCCNC(=O)CCc4ccc5n4[B-](F)(F)[N+]4=C(c6ccc[nH]6)C=CC4=C5)cc3C2=O)CC1 [NAN-190-2-NB590]
[1]; NPY1R, tracer 0.1μM
  NanoBRET Fold Response: 1.02
[1]; NPY1R, tracer 1μM
  NanoBRET Fold Response: 0.94
[2]; PTGER2, tracer 0.1μM
  NanoBRET Fold Response: 1.02
[2]; PTGER2, tracer 1μM
  NanoBRET Fold Response: 0.98
[4]; NPBWR2, tracer 0.1μM
  NanoBRET Fold Response: 1.00
[5]; F2R, tracer 0.1μM
  NanoBRET Fold Response: 1.07
[5]; F2R, tracer 1μM
  NanoBRET Fold Response: 0.93

## CN(C)CCC=C1c2ccccc2CCc2ccc(C(=O)NCCNC(=O)CCOCCOCCOCCOCCNC(=O)CCc3ccc4n3[B-](F)(F)[N+]3=C(c5ccc[nH]5)C=CC3=C4)cc21 [Amitriptyline-a-2-NB590]
[1]; tracer at 0.1μM
  NanoBRET Fold Response: 1.00
[1]; tracer at 1μM
  NanoBRET Fold Response: 1.03
[3]; tracer at 0.1μM
  NanoBRET Fold Response: 1.14
[3]; tracer at 1μM
  NanoBRET Fold Response: 0.93
[5]; tracer at 0.1μM
  NanoBRET Fold Response: 0.94
[5]; tracer at 1μM
  NanoBRET Fold Response: 0.98
